These results are taken from ChEMBL document CHEMBL1123884, “Preparation and antileukemic screening of some new 6'-deoxyhexopyranosyladenine nucleosides” (J Med Chem, 1987).

Assay [1] concerns L1210. Briefly: Antileukemic activity against L1210 cells in culture at a concentration of 10e-4 M; Inactive. The class given is functional, cell-based, Mus musculus.
Assay [2] concerns L1210. Kind of assay: Antileukemic activity against L1210 cells in culture at a concentration of 10e-4 M; Active. The class given is functional, cell-based, Mus musculus.
Assay [3] concerns L1210. Briefly: Antileukemic activity against L1210 cells in culture at a concentration of 5 X 10e-4 M; extremely weak. The class given is functional, cell-based. To be noted: Mus musculus.

For `Nc1ncnc2c1ncn2C1OC(CO)C(O)C(O)C1O` (stereo unspecified), in the assay with L1210 [1], the IC50 result was “Not Active”.
As for `C[C@H]1O[C@@H](n2cnc3c(N)ncnc32)[C@H](O)[C@@H](O)[C@H]1O`, in the assay on L1210 [2], the IC50 entry is recorded as “Active”.
Turning to `C[C@@H]1O[C@@](CO)(n2cnc3c(N)ncnc32)[C@@H](O)[C@@H]1O`, the IC50 result in the assay on L1210 [1] is given as “Not Active”.
`Nc1ncnc2c1ncn2C1OCC(O)C(O)C1O` (stereo unspecified): the inhibition result with L1210 [3] is reported as “Extremely weak”.
For `C[C@@H]1O[C@@H](n2cnc3c(N)ncnc32)[C@H](O)[C@H](O)[C@@H]1O`, the IC50 result in the assay on L1210 [1] is “Not Active”.
With `C[C@H]1O[C@@H](n2cnc3c(N)ncnc32)[C@H](O)[C@@H](O)[C@@H]1O`, the IC50 result with L1210 [1] is given as “Not Active”.
